Experimental data as given in PubChem BioAssay (NCI).
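How tested: cells in 96-well plates exposed to compound for 48 hours at five concentrations. GI50 is the concentration that inhibits growth by half. At the TGI there is no net growth.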

How the values were obtained:
Assay in all cases: DTP human tumour cell line panel, 48 h
786-0 renal = test system: 786-0 renal
A498 renal = test system: A498 renal
A549 NSCLC = test system: A549 NSCLC
ACHN renal = test system: ACHN renal
BT-549 breast = test system: BT-549 breast
CAKI-1 renal = test system: CAKI-1 renal
CCRF-CEM leukemia = test system: CCRF-CEM leukemia
COLO 205 colon = test system: COLO 205 colon
DU-145 prostate = test system: DU-145 prostate
EKVX NSCLC = test system: EKVX NSCLC
HCC-2998 colon = test system: HCC-2998 colon
HCT-116 colon = test system: HCT-116 colon
HCT-15 colon = test system: HCT-15 colon
HL-60(TB) leukemia = test system: HL-60(TB) leukemia
HOP-62 NSCLC = test system: HOP-62 NSCLC
HOP-92 NSCLC = test system: HOP-92 NSCLC
HS 578T breast = test system: HS 578T breast
HT29 colon = test system: HT29 colon
IGROV1 ovarian = test system: IGROV1 ovarian
K-562 leukemia = test system: K-562 leukemia
KM12 colon = test system: KM12 colon
LOX IMVI melanoma = test system: LOX IMVI melanoma
M14 melanoma = test system: M14 melanoma
MALME-3M melanoma = test system: MALME-3M melanoma
MCF7 breast = test system: MCF7 breast
MDA-MB-231 breast = test system: MDA-MB-231 breast
MDA-MB-435 = test system: MDA-MB-435
MOLT-4 leukemia = test system: MOLT-4 leukemia
NCI-H226 lung = test system: NCI-H226 lung
NCI-H23 lung = test system: NCI-H23 lung
NCI-H460 lung = test system: NCI-H460 lung
NCI-H522 lung = test system: NCI-H522 lung
NCI/ADR-RES ovarian = test system: NCI/ADR-RES ovarian
OVCAR-3 ovarian = test system: OVCAR-3 ovarian
OVCAR-4 ovarian = test system: OVCAR-4 ovarian
OVCAR-5 ovarian = test system: OVCAR-5 ovarian
OVCAR-8 ovarian = test system: OVCAR-8 ovarian
PC-3 prostate = test system: PC-3 prostate
RPMI-8226 leukemia = test system: RPMI-8226 leukemia
RXF 393 renal = test system: RXF 393 renal
SF-268 CNS = test system: SF-268 CNS
SF-295 CNS = test system: SF-295 CNS
SF-539 CNS = test system: SF-539 CNS
SK-MEL-2 melanoma = test system: SK-MEL-2 melanoma
SK-MEL-28 melanoma = test system: SK-MEL-28 melanoma
SK-MEL-5 melanoma = test system: SK-MEL-5 melanoma
SK-OV-3 ovarian = test system: SK-OV-3 ovarian
SN12C renal = test system: SN12C renal
SNB-19 CNS = test system: SNB-19 CNS
SNB-75 CNS = test system: SNB-75 CNS
SR leukemia = test system: SR leukemia
SW-620 colon = test system: SW-620 colon
T-47D breast = test system: T-47D breast
TK-10 renal = test system: TK-10 renal
U251 CNS = test system: U251 CNS
UACC-257 melanoma = test system: UACC-257 melanoma
UACC-62 melanoma = test system: UACC-62 melanoma
UO-31 renal = test system: UO-31 renal

**Q.** Which results are given for `O=C(Nc1cccc(O)c1)c1ccc(NC2=C(Cl)C(=O)N(Cc3ccc(Cl)cc3Cl)C2=O)cc1`?
**A.** GI50 (786-0 renal): 7.2 µM; TGI (786-0 renal): > 57 µM; GI50 (A498 renal): 15 µM; TGI (A498 renal): 29.3 µM; GI50 (A549 NSCLC): 15.7 µM; TGI (A549 NSCLC): 31.7 µM; GI50 (ACHN renal): 1.75 µM; TGI (ACHN renal): 3.21 µM; GI50 (BT-549 breast): 5.7 µM; TGI (BT-549 breast): 12.2 µM; GI50 (CAKI-1 renal): 1.92 µM; TGI (CAKI-1 renal): 3.58 µM; GI50 (CCRF-CEM leukemia): 0.244 µM; TGI (CCRF-CEM leukemia): 0.95 µM; GI50 (COLO 205 colon): 1.9 µM; TGI (COLO 205 colon): 4.18 µM; GI50 (DU-145 prostate): 6.15 µM; TGI (DU-145 prostate): 11.6 µM; GI50 (EKVX NSCLC): 6.74 µM; TGI (EKVX NSCLC): 13.6 µM; GI50 (HCC-2998 colon): 18.9 µM; TGI (HCC-2998 colon): 33.8 µM; GI50 (HCT-116 colon): 6.89 µM; TGI (HCT-116 colon): > 56.4 µM; GI50 (HCT-15 colon): 2.51 µM; TGI (HCT-15 colon): 6.13 µM; TGI (HL-60(TB) leukemia): 3.75 µM; GI50 (HOP-62 NSCLC): 8.44 µM; TGI (HOP-62 NSCLC): > 58.5 µM; GI50 (HOP-92 NSCLC): 1.86 µM; TGI (HOP-92 NSCLC): 4.16 µM; GI50 (HS 578T breast): 3.24 µM; TGI (HS 578T breast): 11.9 µM; GI50 (HT29 colon): 2.75 µM; TGI (HT29 colon): > 22.1 µM; GI50 (IGROV1 ovarian): 1.7 µM; TGI (IGROV1 ovarian): 3.3 µM; GI50 (K-562 leukemia): 1.08 µM; TGI (K-562 leukemia): 3.96 µM; GI50 (KM12 colon): 1.84 µM; TGI (KM12 colon): 3.66 µM; GI50 (LOX IMVI melanoma): 1.62 µM; TGI (LOX IMVI melanoma): 3.16 µM; GI50 (M14 melanoma): 8.29 µM; TGI (M14 melanoma): > 55.9 µM; GI50 (MALME-3M melanoma): 2.23 µM; TGI (MALME-3M melanoma): 5.75 µM; GI50 (MCF7 breast): 1.83 µM; TGI (MCF7 breast): 4.29 µM; GI50 (MDA-MB-231 breast): 1.85 µM; TGI (MDA-MB-231 breast): 4.05 µM; GI50 (MDA-MB-435): 1.89 µM; TGI (MDA-MB-435): 3.63 µM; GI50 (MOLT-4 leukemia): 0.383 µM; TGI (MOLT-4 leukemia): 2.17 µM; GI50 (NCI-H226 lung): 6.78 µM; TGI (NCI-H226 lung): 26.7 µM; GI50 (NCI-H23 lung): 19.6 µM; TGI (NCI-H23 lung): 36.1 µM; GI50 (NCI-H460 lung): 2.86 µM; TGI (NCI-H460 lung): 8.91 µM; GI50 (NCI-H522 lung): 1.94 µM; TGI (NCI-H522 lung): 4.24 µM; GI50 (NCI/ADR-RES ovarian): 21.6 µM; TGI (NCI/ADR-RES ovarian): 48.1 µM; GI50 (OVCAR-3 ovarian): 1.66 µM; TGI (OVCAR-3 ovarian): 3.45 µM; GI50 (OVCAR-4 ovarian): 5.43 µM; TGI (OVCAR-4 ovarian): 12.7 µM; GI50 (OVCAR-5 ovarian): 18.8 µM; TGI (OVCAR-5 ovarian): 34.1 µM; GI50 (OVCAR-8 ovarian): 1.95 µM; TGI (OVCAR-8 ovarian): 4.12 µM; GI50 (PC-3 prostate): 1.75 µM; TGI (PC-3 prostate): 4.28 µM; GI50 (RPMI-8226 leukemia): 0.749 µM; TGI (RPMI-8226 leukemia): 2.52 µM; GI50 (RXF 393 renal): 2.31 µM; TGI (RXF 393 renal): 4.72 µM; GI50 (SF-268 CNS): 2.01 µM; TGI (SF-268 CNS): 4.75 µM; GI50 (SF-295 CNS): 1.95 µM; TGI (SF-295 CNS): 4.07 µM; GI50 (SF-539 CNS): 6.32 µM; TGI (SF-539 CNS): 11.8 µM; GI50 (SK-MEL-2 melanoma): 5.29 µM; TGI (SK-MEL-2 melanoma): 14.5 µM; GI50 (SK-MEL-28 melanoma): 3.41 µM; TGI (SK-MEL-28 melanoma): 10.1 µM; GI50 (SK-MEL-5 melanoma): 4.71 µM; TGI (SK-MEL-5 melanoma): 9.73 µM; GI50 (SK-OV-3 ovarian): 4.6 µM; TGI (SK-OV-3 ovarian): 14.7 µM; GI50 (SN12C renal): 1.99 µM; TGI (SN12C renal): 4.09 µM; GI50 (SNB-19 CNS): 2.69 µM; TGI (SNB-19 CNS): 7.68 µM; GI50 (SNB-75 CNS): 2.77 µM; TGI (SNB-75 CNS): 11.2 µM; GI50 (SR leukemia): 0.168 µM; TGI (SR leukemia): 0.411 µM; GI50 (SW-620 colon): 2.21 µM; TGI (SW-620 colon): 6.42 µM; GI50 (T-47D breast): 2.01 µM; TGI (T-47D breast): > 21.2 µM; GI50 (TK-10 renal): 2.07 µM; TGI (TK-10 renal): 4.82 µM; GI50 (U251 CNS): 1.76 µM; TGI (U251 CNS): 3.23 µM; GI50 (UACC-257 melanoma): 7.96 µM; TGI (UACC-257 melanoma): 21.6 µM; GI50 (UACC-62 melanoma): 5.31 µM; TGI (UACC-62 melanoma): 9.96 µM; GI50 (UO-31 renal): 1.91 µM; TGI (UO-31 renal): 3.75 µM
